Values quoted from earlier work as cited in US20190364946A1, “POWDERS AND TABLETS COMPRISING OMEGA-3 FATTY ACID DERIVATIVES AND METHODS FOR THEIR PRODUCTION” (OMEGATRI AS, priority 2016, published 2019).

Conditions: for Surfactants HLB: HLB of added surfactant or surfactant mixture; for HLB value: from commercial and scientific sources

| Surfactants HLB | Substance | HLB value |
| --- | --- | --- |
| 4.3 | Span 80 |  |
|  | sorbitan stearate | 4.7 |
| 1.8 | Span 85 |  |
|  | sorbitan monostearate | 4.7 |
